Data published in PubChem BioAssay AID330 (DTP/NCI, 2004).
Values joined by “and” are separate entries in the source; they are usually repeats but may differ in a detail not shown here. Equal entries are not always repeated. Inconclusive results and toxic doses are left out. How the source made its calls: active means survival T/C of 150% or more; inactive means T/C below 125% in these data.

Tested on: P388 leukemia ip, CD2F1 mice, survival T/C
Test: NCI In Vivo Anticancer Drug Screen. Data for tumor model P388 Leukemia (intraperitoneal) in CD2F1 (CDF1) mice
Details: endpoint: median survival time, higher = longer survival
Method in brief: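 Mice carrying the transplanted tumor received test compound or vehicle. Survival was recorded in each group, and the value is the treated-group measurement divided by that of the vehicle-treated control group.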

[1] = dose: 60.0 mg/kg/injection, schedule: Q01DX005 (ip), vehicle: saline with Tween-80
[2] = dose: 120.0 mg/kg/injection, schedule: Q01DX005 (ip), vehicle: saline with Tween-80
[3] = dose: 240.0 mg/kg/injection, schedule: Q01DX005 (ip), vehicle: saline with Tween-80
[4] = dose: 50.0 mg/kg/injection, schedule: Q01DX009 (ip), vehicle: Klucel (hydroxypropylcellulose) (HPC)
[5] = dose: 100.0 mg/kg/injection, schedule: Q01DX009 (ip), vehicle: Klucel (hydroxypropylcellulose) (HPC)
[6] = dose: 200.0 mg/kg/injection, schedule: Q01DX009 (ip), vehicle: Klucel (hydroxypropylcellulose) (HPC)
[7] = dose: 50.0 mg/kg/injection, schedule: Q01DX005 (ip), vehicle: saline with Tween-80
[8] = dose: 100.0 mg/kg/injection, schedule: Q01DX005 (ip), vehicle: saline with Tween-80
[9] = dose: 200.0 mg/kg/injection, schedule: Q01DX005 (ip), vehicle: saline with Tween-80
[10] = dose: 50.0 mg/kg/injection, schedule: Q01DX009 (ip), vehicle: saline with Tween-80
[11] = dose: 100.0 mg/kg/injection, schedule: Q01DX009 (ip), vehicle: saline with Tween-80
[12] = dose: 6.25 mg/kg/injection, schedule: Q01DX005 (ip), vehicle: Klucel (hydroxypropylcellulose) (HPC)
[13] = dose: 12.5 mg/kg/injection, schedule: Q01DX005 (ip), vehicle: Klucel (hydroxypropylcellulose) (HPC)
[14] = dose: 25.0 mg/kg/injection, schedule: Q01DX005 (ip), vehicle: Klucel (hydroxypropylcellulose) (HPC)
[15] = dose: 25.0 mg/kg/injection, schedule: Q01DX009 (ip), vehicle: other
[16] = dose: 50.0 mg/kg/injection, schedule: Q01DX009 (ip), vehicle: other
[17] = dose: 100.0 mg/kg/injection, schedule: Q01DX009 (ip), vehicle: other
[18] = dose: 200.0 mg/kg/injection, schedule: Q01DX009 (ip), vehicle: other
[19] = dose: 50.0 mg/kg/injection, schedule: Q01DX009 (ip), vehicle: saline
[20] = dose: 100.0 mg/kg/injection, schedule: Q01DX009 (ip), vehicle: saline
[21] = dose: 200.0 mg/kg/injection, schedule: Q01DX009 (ip), vehicle: saline
[22] = dose: 6.25 mg/kg/injection, schedule: Q01DX009 (ip), vehicle: saline
[23] = dose: 12.5 mg/kg/injection, schedule: Q01DX009 (ip), vehicle: saline
[24] = dose: 25.0 mg/kg/injection, schedule: Q01DX009 (ip), vehicle: saline

Measured: T/C

Cc1ccc(C)c(NC(=O)CCC(=O)C(C#N)c2nc3ccccc3s2)c1 (stereo not drawn)
inactive: [1] 103 % of control | [2] 102 % of control | [3] 97 % of control

Cc1ccccc1NC(=O)C(=O)C(C#N)c1c(Cl)cccc1Cl (stereo not drawn)
inactive: [1] 114 % of control | [2] 100 % of control | [3] 99 % of control

CCCC(=O)OCc1ccc(Cl)c(Cl)c1
inactive: dose: 25.0 mg/kg/injection, schedule: Q04DX003 (ip), vehicle: saline 100 % of control | dose: 50.0 mg/kg/injection, schedule: Q04DX003 (ip), vehicle: saline 104 % of control | dose: 100.0 mg/kg/injection, schedule: Q04DX003 (ip), vehicle: saline 100 % of control

CSc1nc(N)c(NS(=O)(=O)c2cccc(N)c2)c(=O)[nH]1
inactive: [1] 100 % of control | [2] 99 % of control | [3] 99 % of control

COc1ccccc1C1C(C#N)C(=O)NC(=O)C1C#N (stereo not drawn)
inactive: [4] 113 % of control | [5] 105 % of control | [6] 105 % of control

CC(=O)n1nc(Cl)c2cccnc2c1=O
inactive: [7] 98 % of control | [8] 99 % of control | [9] 107 % of control

O=S(=O)(Nc1ncccn1)c1ccc(NCc2c3ccccc3nc3cc(Cl)ccc23)cc1
inactive: [1] 87 % of control | [2] 86 % of control | [3] 91 % of control

CC1CCCC(C)N1C(=O)c1ccccc1 (stereo not drawn)
inactive: [1] 98 % of control | [2] 97 % of control | [3] 96 % of control

CC(=O)c1ccccc1C(C)C
inactive: dose: 25.0 mg/kg/injection, schedule: Q01DX009 (ip), vehicle: saline with Tween-80 100 % of control | [10] 109 % of control | [11] 119 % of control

CC(C)CN=C1NS(=O)(=O)c2ccccc21
inactive: [7] 100 % of control | [8] 101 % of control | [9] 101 % of control

N=C(N)c1ccc(N=Nc2ccc(O)c3c2ccc[n+]3[O-])cc1
inactive: dose: 3.13 mg/kg/injection, schedule: Q01DX005 (ip), vehicle: Klucel (hydroxypropylcellulose) (HPC) 106 % of control | [12] 97 % of control | [13] 106 % of control | [14] 109 % of control and 110 % of control and 117 % of control | dose: 50.0 mg/kg/injection, schedule: Q01DX005 (ip), vehicle: Klucel (hydroxypropylcellulose) (HPC) 117 % of control | dose: 100.0 mg/kg/injection, schedule: Q01DX005 (ip), vehicle: Klucel (hydroxypropylcellulose) (HPC) 103 % of control and 123 % of control | dose: 200.0 mg/kg/injection, schedule: Q01DX005 (ip), vehicle: Klucel (hydroxypropylcellulose) (HPC) 110 % of control

CC(C)(N)P(=O)(O)O
inactive: dose: 25.0 mg/kg/injection, schedule: Q01DX009 (ip), vehicle: suspension in saline 96 % of control | dose: 50.0 mg/kg/injection, schedule: Q01DX009 (ip), vehicle: suspension in saline 92 % of control | dose: 100.0 mg/kg/injection, schedule: Q01DX009 (ip), vehicle: suspension in saline 100 % of control | dose: 200.0 mg/kg/injection, schedule: Q01DX009 (ip), vehicle: suspension in saline 106 % of control

COc1cc(Br)c(/C=C/[N+](=O)[O-])cc1OC
inactive: dose: 100.0 mg/kg/injection, schedule: Q04DX003 (ip), vehicle: saline with Tween-80 116 % of control

COc1ccc2c(N/N=C/c3ccc4c(c3)OCO4)cc(C)nc2c1
inactive: dose: 1.5 mg/kg/injection, schedule: Q01DX005 (ip), vehicle: Klucel (hydroxypropylcellulose) (HPC) 95 % of control | dose: 3.0 mg/kg/injection, schedule: Q01DX005 (ip), vehicle: Klucel (hydroxypropylcellulose) (HPC) 93 % of control | dose: 6.0 mg/kg/injection, schedule: Q01DX005 (ip), vehicle: Klucel (hydroxypropylcellulose) (HPC) 95 % of control | [12] 88 % of control | [13] 107 % of control | [14] 88 % of control

COc1ccc(/C=N/N2CN(C(C)C(=O)O)C(C)(O)N=C2N)cc1OC (stereo not drawn)
inactive: dose: 60.0 mg/kg/injection, schedule: Q01DX005 (ip), vehicle: saline 102 % of control | dose: 120.0 mg/kg/injection, schedule: Q01DX005 (ip), vehicle: saline 104 % of control | dose: 240.0 mg/kg/injection, schedule: Q01DX005 (ip), vehicle: saline 103 % of control

Cc1nc2sc3c(c2c(=N)n1N)CCCC3
inactive: dose: 12.5 mg/kg/injection, schedule: Q01DX001 (ip), vehicle: Klucel (hydroxypropylcellulose) (HPC) 103 % of control | dose: 25.0 mg/kg/injection, schedule: Q01DX001 (ip), vehicle: Klucel (hydroxypropylcellulose) (HPC) 97 % of control

Cc1cc(=O)[nH]c2c1CCCC2
inactive: dose: 100.0 mg/kg/injection, schedule: Q04DX003 (ip), vehicle: saline sonified 107 % of control | dose: 200.0 mg/kg/injection, schedule: Q04DX003 (ip), vehicle: saline sonified 96 % of control | dose: 400.0 mg/kg/injection, schedule: Q04DX003 (ip), vehicle: saline sonified 92 % of control

CC(=O)CCC1=C(C)C(=O)C(=O)C(C)=C1O
inactive: dose: 60.0 mg/kg/injection, schedule: Q01DX005 (ip), vehicle: Klucel (hydroxypropylcellulose) (HPC) 96 % of control | dose: 120.0 mg/kg/injection, schedule: Q01DX005 (ip), vehicle: Klucel (hydroxypropylcellulose) (HPC) 98 % of control

O=C1NC(c2ccccc2Cl)Nc2ccccc21 (stereo not drawn)
inactive: [4] 94 % of control | [5] 92 % of control | [6] 95 % of control | dose: 400.0 mg/kg/injection, schedule: Q01DX009 (ip), vehicle: Klucel (hydroxypropylcellulose) (HPC) 90 % of control

COC1CC(NC(C)=O)C(OC(=O)c2ccccc2)C(CBr)O1 (stereo not drawn)
inactive: dose: 1.56 mg/kg/injection, schedule: Q01DX009 (ip), vehicle: other 94 % of control | dose: 3.13 mg/kg/injection, schedule: Q01DX009 (ip), vehicle: other 94 % of control | dose: 6.25 mg/kg/injection, schedule: Q01DX009 (ip), vehicle: other 106 % of control | dose: 12.5 mg/kg/injection, schedule: Q01DX009 (ip), vehicle: other 108 % of control | [15] 100 % of control and 106 % of control | [16] 101 % of control | [17] 104 % of control | [18] 97 % of control | dose: 400.0 mg/kg/injection, schedule: Q01DX009 (ip), vehicle: other 92 % of control

N#CC1C(=O)NC(=S)NC1c1ccc(C2CC(=O)NC(=S)N2)cc1 (stereo not drawn)
inactive: [10] 104 % of control | [11] 105 % of control | dose: 200.0 mg/kg/injection, schedule: Q01DX009 (ip), vehicle: saline with Tween-80 106 % of control

CNC(=S)NNc1cccc([N+](=O)[O-])c1
inactive: [15] 96 % of control | [16] 106 % of control | [17] 91 % of control | [18] 92 % of control

CC(S)C(N)C(=O)O (stereo not drawn)
inactive: [19] 100 % of control | [20] 95 % of control | dose: 100.0 mg/kg/injection, schedule: Q04DX002 (ip), vehicle: saline with Tween-80 105 % of control and 94 % of control | [21] 97 % of control | dose: 200.0 mg/kg/injection, schedule: Q04DX002 (ip), vehicle: saline with Tween-80 114 % of control and 90 % of control | dose: 400.0 mg/kg/injection, schedule: Q04DX002 (ip), vehicle: saline with Tween-80 114 % of control and 89 % of control

O=c1oc2ccccc2cc1-n1nnc2ccccc21
inactive: [1] 98 % of control | [2] 90 % of control | [3] 90 % of control

O=[N+]([O-])c1cnc(/C=[N+](\[O-])C2CCCCC2)n1CCO
inactive: [19] 98 % of control | [20] 100 % of control | [21] 102 % of control

Cc1ccc(C(=O)CCN(C)C)cc1
inactive: [22] 105 % of control | [23] 100 % of control | [24] 96 % of control | [19] 98 % of control and 106 % of control | [20] 107 % of control

CC(=O)NCC(O)CNC(C)=O
inactive: [22] 103 % of control | [23] 97 % of control | [24] 95 % of control
